The values that follow come from PMC8424689 (ACS infectious diseases, 2021).

This experiment concerns the target SARS-CoV-2 main protease (M^pro) (Severe acute respiratory syndrome coronavirus 2, UniProt P0DTD1).
Turning to RVVKLQ/ANELMP [nsp8/9 N1′A], the “Fold change = (kcat/KM) nsp8/9 analog /(kcat/KM) nsp8/9” value is on record as 2.9, the Km came to 22 ± 3 µM, the kcat is recorded as 0.022 ± 0.001 S^−1 and the “kcat/KM (catalytic efficiency)” value is on record as 1.0 ± 0.1 × 10^3 M^−1 s^−1.

For the substance RVVKLQ/NDELMP [nsp8/9 N2′D], the “Fold change = (kcat/KM) nsp8/9 analog /(kcat/KM) nsp8/9” value is given as 0.4, the Km stood at 19 ± 1 µM, the kcat is 0.0029 ± 0.0001 S^−1 and the “kcat/KM (catalytic efficiency)” value was 1.6 ± 1.2 × 10^2 M^−1 s^−1.

Regarding TSAVLQ/SGFRKM [nsp4/5], the Km stood at 41 ± 9 µM; the “fold difference in kcat/KM, nsp4/5 versus nsp8/9” value was 36 fold; the kcat was determined as 0.52 ± 0.07 S^−1; the “kcat/KM (catalytic efficiency)” value is 1.3 ± 0.3 × 10^4 M^−1 s^−1.

For RVVKLQ/NNELMP [nsp8/9], the “Fold change = (kcat/KM) nsp8/9 analog /(kcat/KM) nsp8/9” value is listed as 1.0, the Km is 36 ± 6 µM, the kcat stood at 0.013 ± 0.001 S^−1 and the “kcat/KM (catalytic efficiency)” value is 3.6 ± 0.7 × 10^2 M^−1 s^−1.

For the substance RVVKLQ/NAELMP [nsp8/9 N2′A], the “Fold change = (kcat/KM) nsp8/9 analog /(kcat/KM) nsp8/9” value came to 2.1, the Km was 46 ± 5 µM, the kcat was 0.034 ± 0.002 S^−1 and the “kcat/KM (catalytic efficiency)” value is listed as 7.5 ±0.8 × 10^2 M^−1 s^−1.
